Measured values from patent publication US4452813A, “Sulfonate derivatives, process for preparing same and antilipemic compositions containing the derivative” (Taiho Pharmaceutical Company Limited, priority 1981, dated 1984).
Read-outs that look alike come from different tables or passages of the source.

Assays:
[1] = background literature, cited from earlier work
Chymotripsin = Chymotripsin (Bos taurus, UniProt P00766); experiment: Chymotripsin inhibiting activity (hydrolysis of ATEE); format: biochemical; conditions: 0.5 h; 1 × 10^-4 mol; 20 min preincubation, ATEE 30 min, 37° C., pH 8.0
Description: 2. Chymotripsin Inhibiting Activity
Chymotripsin (0.1 unit) serving as an enzyme solution is added to a specified quantity of buffer solution (pH 8.0) containing 0.1 mole of trishydrochloric acid. To the mixture is further added a 50% ethanol solution of the compound of the invention. The mixture is reacted at 37° C. for 20 minutes.
On completion of the reaction, 10 micromoles of […] (ATEE) serving as a substrate is added to the mixture, and the resulting mixture is reacted at 37° C. for 30 minutes.
After the completion of the reaction, the amount of remaining ATEE is determined by the same hydroxamic acid method as above. The percent chymotripsin inhibition is given by [formula] wherein A is the amount of hydrolzed esters in the reaction system not containing the compound of the invention, and B is the amount of hydrolyzed esters in the reaction system containing the present compound.

[2] = test system: triglycerides content in the plasma; experiment: Antilipemic effect: inhibition of olive oil-induced hyperlipidemia, plasma triglycerides; format: in vivo, male Wister rats; conditions: Rattus norvegicus, 100 mg compound in 5 ml olive oil, 5 ml/kg oral, 2 hours, read-out: Antilipemic effect IGI (%) (percent hyperlipidemia inhibition, triglycerides)
Description: Seven-week-old male Wister rats weighing 200 to 220 g are used, 5 rats in each group.
The compound of the invention (100 mg) is dissolved in 5 ml of olive oil. The olive oil containing the compound is orally given to the rat with a probe at a dose of 5 ml/kg. Two hours thereafter, 6 ml of whole blood is withdrawn from the descending aorta of the rat under ether anesthesia with a syringe containing heparin. The blood is centrifuged at 5° C. and 3000 r.p.m. to obtain the plasma. The plasma collected is used for determining the triglycerides content, using a triglycerides measuring kit (trade mark "Triglycerides-B Test Wako," product of Wako Junyaku Co., Ltd., Japan). Olive oil containing no compound is similarly given to a control group, while no treatment is conducted for a normal group. The triglycerides content in the plasma is also determined for these groups in the same manner as is the case with the test groups.
The percent hyperlipidemia inhibition achieved by the present compound is given by [formula] in which A is the triglycerides content of the control group, B is the triglycerides content of the normal group, and C is the triglycerides content of the group to which the present compound is given.

[3] = molecular target: esterase (purified microsome fraction of the liver of a rat); experiment: Esterase inhibiting activity (hydrolysis of methyl butyrate); format: biochemical; conditions: methyl butyrate substrate, pH 8.0, 37° C., 60 minutes
Description: 1. Esterase Inhibiting Activity
A 10 micromole quantity of methyl butyrate in a 50% ethanol solution is added as a substrate to a specified amount of buffer solution (pH 8.0) containing 0.1 mole of trishydrochloric acid. To the mixture is further added a 50% ethanol solution of the compound of the invention, immediately followed by addition of an esterase solution prepared from a purified microsome fraction of the liver of a rat (adjusted to hydrolyze 9 micromoles of methyl butyrate at 37° C. in one hour). The mixture is reacted at 37° C. for 60 minutes.
After the reaction, alkaline hydroxylamine is added to the mixture to form a hydroxamic acid derivative of methyl butyrate, and a ferric salt is added to the derivative. The resulting red color is colorimetrically determined (at a wavelength of 540 nm) to determine the amount of remaining methyl butyrate. The esterase inhibiting ratios of the present compound at least at three concentrations are plotted as ordinate, and the logarithms of the concentrations as abscissa to obtain a line, which gives the 50% inhibition concentration (IC50).

[4] = Acute toxicity, oral, one week; conditions: rat, in vivo, 5% gum arabic suspension
Excerpt: Six-week-old male Wister rats weighing 180 to 200 g are used, 5 rats in each group. The present compound is suspended in a 5% aqueous solution of gum arabic, and the suspension is orally given to the rats. For one week after the start of the test, the rats are checked evey day for general toxicity symptoms, body weight and death to determine the LD50 value.

Compound	reported side effects (in words) [1]	reported side effects (in words) ([1]; listed as clofibrate)	inhibition at 100 µM (Chymotripsin) [%]	inhibition in vivo at 100 mg/kg [2] [%]	IC50 [3] [µM]	LD50 at 168 h [4] [mg/kg]
O=C(O)c1cccnc1 [Nicotinic acid]	pruritus and cutaneous flushing due to vasodilatation, gastrointestinal disorders, abnormalities in liver function and glucose intolerance	–	–	–	–	–
CCOC(=O)C(C)(C)Oc1ccc(Cl)cc1 [Clofibrate]	carcinogenic activity	increased sterol discharge	–	–	–	–
Cc1ccc(S(=O)(=O)OCC(=O)[C@H]2CC[C@H](C(C)(C)C)CC2)cc1 [Compound 37]	–	–	22	66	5.4	> 3000
